In ChEMBL document CHEMBL3244341, “Potential antiinflammatory compounds. 2. Acidic antiinflammatory 1,2-benzisoxazoles” (J Med Chem, 1979) one finds LD50, inhibition in vivo and inhibition data, which are given here for seven compounds.

Calls of active or inactive are those of the source. No cut-off for these calls is given here.

Data set [1] in a line: Toxicity in po dosed mouse. The conditions noted are these: in vivo. Type of data set: organism-based.
Data set [2] has as its system Rattus norvegicus. Briefly: Antiinflammatory activity in rat assessed as reduction in carrageenan-induced foot edema at 50 mg/kg, po. Type of data set: functional.
Data set [3] has as its system Rattus norvegicus. Briefly: Antiinflammatory activity in rat assessed as reduction in carrageenan-induced foot edema at 50 mg/kg, po relative to hydrocortisone-treated control. Type of data set: functional.
Data set [4] has as its system Rattus norvegicus. Briefly: Antiinflammatory activity in rat assessed as reduction in carrageenan-induced foot edema at 50 mg/kg, po relative to phenylbutazone-treated control. Type of data set: functional.
In data set [5] the test system is Rattus norvegicus. As to the kind of experiment: Antiinflammatory activity in rat assessed as reduction in carrageenan-induced foot edema at 50 mg/kg, po bid administered 3 hrs and again 0.5 hrs prior to carrageenan challenge. Type of data set: functional.
Data set [6] deals with Rattus norvegicus. Briefly: Antiinflammatory activity in rat assessed as reduction in carrageenan-induced foot edema at 50 mg/kg, po bid administered 3 hrs and again 0.5 hrs prior to carrageenan challenge relative to phenylbutazone-treated control. Type of data set: functional.
For data set [7], the species on record is Rattus norvegicus. Briefly: Antiinflammatory activity against mycobacterial adjuvant-induced arthritis in albino rat assessed as reduction in foot swelling by micrometer analysis. Type of data set: functional, organism-based.
Data set [8] deals with Rattus norvegicus. As to the kind of experiment: Antiinflammatory activity in rat assessed as reduction in carrageenan-induced foot edema at 25 mg/kg, po. Type of data set: functional.

In data set [1], `CC(C(=O)O)c1ccc2c(-c3ccc(Cl)cc3)noc2c1` (configuration not stated) returned an LD50 of 600 mg/kg. Also, the values for the inhibition in vivo at 50 mg/kg in the data set with Rattus norvegicus [2] and in the data set with Rattus norvegicus [3] were 46% and 38%, respectively.
In the case of `CC(C(=O)O)c1ccc2onc(-c3ccc(Cl)cc3)c2c1` (configuration not stated), the LD50 in data set [1] came to 800 mg/kg. Besides, the inhibition in vivo at 50 mg/kg with Rattus norvegicus [2] was 18%; with Rattus norvegicus [3], 38%.
In data set [1], `CC(C(=O)O)c1ccc2c(-c3ccc(F)cc3)noc2c1` (configuration not stated) showed an LD50 of 400 mg/kg. The inhibition in vivo at 50 mg/kg turned out to be 37% with Rattus norvegicus [2] and 57% with Rattus norvegicus [4].
For `O=C(O)Cc1ccc2onc(-c3ccc(Cl)cc3)c2c1`, the LD50 in data set [1] was determined as 600 mg/kg. The inhibition in vivo at 50 mg/kg with Rattus norvegicus [5] came out at 22%; in the data set on Rattus norvegicus [6], 36%.
Consider `CC(C(=O)O)c1cccc2c(-c3ccc(Cl)cc3)noc12` (configuration not stated), for which the LD50 in data set [1] amounted to 200 mg/kg. Further, the inhibition entry in the data set filed under Rattus norvegicus [7] was “Active”. Also, in the data set with Rattus norvegicus [4], the inhibition in vivo at 50 mg/kg came out at 48%. Also, the inhibition in vivo at 25 mg/kg with Rattus norvegicus [8] amounted to 46%.
`CC(C(=O)O)c1cccc2c(-c3ccccc3)noc12` (configuration not stated): the median lethal dose (LD50) in data set [1] stood at 1600 mg/kg. Moreover, the inhibition in vivo at 50 mg/kg with Rattus norvegicus [2] was determined as 42%; in the data set on Rattus norvegicus [4], 32%.
On the same counts, the results for `O=C(O)Cc1cccc2c(-c3ccc(Cl)cc3)noc12` are 600 mg/kg, 36% and 49%.
